Measured values published in patent publication US12227520B2 (priority 2019, dated 2025).
Like-named read-outs stand apart in the source and are kept apart here.

Key:
HIV-1 (IIIB) = test: Antiviral assay in MT-4 cells (HIV MT-4 antiviral assay); format: cell-based; conditions: Human immunodeficiency virus 1, IIIB, MT4, 120 h, HIV-1 (IIIB) in MT-4 cells, 5 days incubation; read-out: EC50
In short: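 MT-4 cells infected with HIV-1 IIIB (1:250 diluted stock) and exposed to 1:3 serially diluted compound in RPMI with 10% FBS. Viability read by CellTiter-Glo luminescence after 5 days at 37° C; mock-infected cells and 5 μM AZT as controls.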

[1] = Cytotoxicity assay in MT-4 cells; format: cell-based, human; conditions: human, uninfected MT-4 cells, 5 days incubation; read-out: CC50
In short: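 Infected MT-4 cells (HIV-1 IIIB, fresh 1:250 dilution of concentrated stock) or mock-infected cells exposed to compounds for 5 days at 37 °C. Viability by CellTiter-Glo luminescence; 5 μM AZT positive control, no-drug negative control. Uninfected cells used for cytotoxicity, with 10 μM puromycin as base-level cytotoxicity control.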

pLai RLuc reporter virus = test: microbe, parasite or virus in culture; format: cell-based, HIV; conditions: Human immunodeficiency virus 1, 72 h
In short: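 MT-4 cells pre-infected 2 h at 37 °C with pLai RLuc virus, then exposed to 1:3 serial dilutions of compound in RPMI/10% FBS with or without 50% human serum for 72 h at 37 °C. Renilla luminescence read-out; serum shift = EC50(HS/CCM)/EC50(CCM).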

[2] = read-out: Antiviral Serum Shift RLuc 50% HS, HS/CCM (RPMI media, 10% FBS, 50% HS, 1% P/S), 72-h incubation
[3] = read-out: Antiviral Serum Shift RLuc CCM, CCM (RPMI media, 10% FBS, 1% P/S), 72-h incubation

## O=C(NCc1ccc(F)c(Cl)c1Cl)c1cn2c(c(O)c1=O)C(=O)N1CCCC[C@H]2C1 [Example 62, (7S)—N-(2,3-dichloro-4-fluorobenzyl)-12-hydroxy-1,11-dioxo-1,4,5,6,7,11-hexahydro-3H-2,7-methanopyrido[1,2-a][1,4]diazonine-10-carboxamide]
HIV-1 (IIIB)
  EC50: 1.27 nM
[1]
  CC50 at 5 days: 3460 nM
pLai RLuc reporter virus; [2]
  EC50: 4.22 nM
pLai RLuc reporter virus; [3]
  EC50: 0.292 nM

## C[C@H]1CCC[C@H]2CN1C(=O)c1c(O)c(=O)c(C(=O)NCc3c(F)cc(F)cc3F)cn12 [Example 98, (3S, 7S)-12-hydroxy-3-methyl-1,11-dioxo-N-(2,4,6-trifluorobenzyl)-1,4,5,6,7,11-hexahydro-3H-2,7-methanopyrido[1,2-a][1,4]diazonine-10-carboxamide]
HIV-1 (IIIB)
  EC50: 1.27 nM
[1]
  CC50 at 5 days: 14300 nM
pLai RLuc reporter virus; [2]
  EC50: 19.2 nM
pLai RLuc reporter virus; [3]
  EC50: 0.284 nM

## C[C@H]1CC[C@H]2CN(C1)C(=O)c1c(O)c(=O)c(C(=O)NCc3c(F)cc(F)cc3F)cn12 [Example 137-1, (4S,7S)-12-hydroxy-4-methyl-1,11-dioxo-N-(2,4,6-trifluorobenzyl)-1,4,5,6,7,11-hexahydro-3H-2,7-methanopyrido[1,2-a][1,4]diazonine-10-carboxamide]
HIV-1 (IIIB)
  EC50: 2.63 nM
[1]
  CC50 at 5 days: 14700 nM
pLai RLuc reporter virus; [2]
  EC50: 0.707 nM
pLai RLuc reporter virus; [3]
  EC50: 0.184 nM

## O=C(NCc1ccc(F)cc1F)c1cn2c(c(O)c1=O)C(=O)N1CCCC3(CC3)[C@H]2C1 [Example 57-1, (7'S)—N-(2,4-difluorobenzyl)-12′-hydroxy-1′,11′-dioxo-1′,4′,5′,11′-tetrahydro-3′H,7′H-spiro[cyclopropane-1,6′-[2,7]methanopyrido[1,2-a][1,4]diazonine]-10′-carboxamide]
HIV-1 (IIIB)
  EC50: 1.22 nM
[1]
  CC50 at 5 days: 6900 nM
pLai RLuc reporter virus; [2]
  EC50: 2.36 nM
pLai RLuc reporter virus; [3]
  EC50: 0.228 nM

## C[C@]12CC=CCN(C1)C(=O)c1c(O)c(=O)c(C(=O)NCc3ccc(F)cc3F)cn12 [Example 168, (7S)—N-(2,4-difluorobenzyl)-12-hydroxy-7-methyl-1,11-dioxo-1,6,7,11-tetrahydro-3H-2,7-methanopyrido[1,2-a][1,4]diazonine-10-carboxamide]
HIV-1 (IIIB)
  EC50: 1.75 nM
[1]
  CC50 at 5 days: 13700 nM
pLai RLuc reporter virus; [2]
  EC50: 41.3 nM
pLai RLuc reporter virus; [3]
  EC50: 0.187 nM

## O=C(NCc1ccc(F)cc1F)c1cn2c(c(O)c1=O)C(=O)N1CCCCC2C1 (racemic) [Example 25, N-(2,4-difluorobenzyl)-12-hydroxy-1,11-dioxo-1,4,5,6,7,11-hexahydro-3H-2,7-methanopyrido[1,2-a][1,4]diazonine-10-carboxamide]
HIV-1 (IIIB)
  EC50: 1.7 nM
[1]
  CC50 at 5 days: 12600 nM
pLai RLuc reporter virus; [2]
  EC50: 1.92 nM
pLai RLuc reporter virus; [3]
  EC50: 0.191 nM

## O=C(NCc1c(F)cc(F)cc1F)c1cn2c(c(O)c1=O)C(=O)N1C[C@@H]2CSc2ccccc21 [Example 94, (6R)-1-hydroxy-2,14-dioxo-N-(2,4,6-trifluorobenzyl)-2,6,7,14-tetrahydro-6,13-methanobenzo[b]pyrido[2,1-f][1,4,7]thiadiazonine-3-carboxamide]
HIV-1 (IIIB)
  EC50: 1.15 nM
[1]
  CC50 at 5 days: 13700 nM
pLai RLuc reporter virus; [2]
  EC50: 1.73 nM
pLai RLuc reporter virus; [3]
  EC50: 0.411 nM

## O=C(NCc1c(F)cc(F)cc1F)c1cn2c(c(O)c1=O)C(=O)N1C[C@@H]2CCc2sccc21 [Example 104-1, (11S)-6-hydroxy-5,7-dioxo-N-(2,4,6-trifluorobenzyl)-5,7,12,13-tetrahydro-11H-4,11-methanopyrido[1,2-a]thieno[3,2-e][1,4]diazonine-8-carboxamide]
HIV-1 (IIIB)
  EC50: 1.48 nM
[1]
  CC50 at 5 days: 11900 nM
pLai RLuc reporter virus; [2]
  EC50: 1.99 nM
pLai RLuc reporter virus; [3]
  EC50: 0.323 nM

## O=C(NCc1c(F)cc(F)cc1F)c1cn2c(c(O)c1=O)C(=O)N1CCC[C@@H](O)C[C@H]2C1 [Example 82-2, (6R,8S)-6,13-dihydroxy-1,12-dioxo-N-(2,4,6-trifluorobenzyl)-1,3,4,5,6,7,8,12-octahydro-2,8-methanopyrido[1,2-a][1,4]diazecine-11-carboxamide]
HIV-1 (IIIB)
  EC50: 9.57 nM
[1]
  CC50 at 5 days: > 50000 nM
pLai RLuc reporter virus; [2]
  EC50: 3 nM
pLai RLuc reporter virus; [3]
  EC50: 2.09 nM

## O=C(NCc1ccc(F)cc1F)c1cn2c(c(O)c1=O)C(=O)N1C[C@H]2COc2cc(F)c(F)cc21 [Example 92-2, (6S)—N-(2,4-difluorobenzyl)-10,11-difluoro-1-hydroxy-2,14-dioxo-2,6,7,14-tetrahydro-6,13-methanobenzo[b]pyrido[2,1-f][1,4,7]oxadiazonine-3-carboxamide]
HIV-1 (IIIB)
  EC50: 2.01 nM
[1]
  CC50 at 5 days: > 39300 nM
pLai RLuc reporter virus; [2]
  EC50: 0.772 nM
pLai RLuc reporter virus; [3]
  EC50: 0.309 nM

## O=C(NCc1c(F)cc(F)cc1F)c1cn2c(c(O)c1=O)C(=O)N1C[C@H]2CCC(F)(F)C1 [Example 3-1, (7R)-4,4-difluoro-12-hydroxy-1,11-dioxo-N-(2,4,6-trifluorobenzyl)-1,4,5,6,7,11-hexahydro-3H-2,7-methanopyrido[1,2-a][1,4]diazonine-10-carboxamide]
HIV-1 (IIIB)
  EC50: 4.2 nM
[1]
  CC50 at 5 days: > 40200 nM
pLai RLuc reporter virus; [2]
  EC50: 71.5 nM
pLai RLuc reporter virus; [3]
  EC50: 0.85 nM

## O=C(NCc1c(F)cc(F)cc1F)c1cn2c(c(O)c1=O)C(=O)N1CCc3ccc(F)cc3[C@H]2C1 [Example 147, (13S)-11-fluoro-4-hydroxy-3,5-dioxo-N-(2,4,6-trifluorobenzyl)-3,5,8,13-tetrahydro-7H-6,13-methanobenzo[g]pyrido[1,2-a][1,4]diazonine-2-carboxamide]
HIV-1 (IIIB)
  EC50: 2.14 nM
[1]
  CC50 at 5 days: 6910 nM
pLai RLuc reporter virus; [2]
  EC50: 3.64 nM
pLai RLuc reporter virus; [3]
  EC50: 0.375 nM

## O=C(NCc1c(F)cc(F)cc1F)c1cn2c(c(O)c1=O)C(=O)N1CCCC[C@@]2(CF)C1 [Example 163-1, (7S)—N-(2,4,6-trifluorobenzyl)-7-(fluoromethyl)-12-hydroxy-1,11-dioxo-1,4,5,6,7,11-hexahydro-3H-2,7-methanopyrido[1,2-a][1,4]diazonine-10-carboxamide]
HIV-1 (IIIB)
  EC50: 1.26 nM
[1]
  CC50 at 5 days: 20200 nM
pLai RLuc reporter virus; [2]
  EC50: 11.9 nM
pLai RLuc reporter virus; [3]
  EC50: 0.0674 nM

## O=C(NCc1c(F)cc(F)cc1F)c1cn2c(c(O)c1=O)C(=O)N1Cc3ccc(Cl)cc3C[C@H]2C1 (single isomer, unassigned) [Example 127-1]
HIV-1 (IIIB)
  EC50: 1.38 nM
[1]
  CC50 at 5 days: 5630 nM
pLai RLuc reporter virus; [2]
  EC50: 2.93 nM
pLai RLuc reporter virus; [3]
  EC50: 0.324 nM

## O=C(NCc1ccc(F)cc1F)c1cn2c(c(O)c1=O)C(=O)N1Cc3cc(F)c(F)cc3C[C@H]2C1 [Example 89, (6S)—N-(2,4-difluorobenzyl)-9,10-difluoro-1-hydroxy-2,14-dioxo-2,7,12,14-tetrahydro-6H-6,13-methanobenzo[f]pyrido[1,2-a][1,4]diazonine-3-carboxamide]
HIV-1 (IIIB)
  EC50: 2.38 nM
[1]
  CC50 at 5 days: > 47900 nM
pLai RLuc reporter virus; [2]
  EC50: 4.39 nM
pLai RLuc reporter virus; [3]
  EC50: 0.669 nM

## O=C(NCc1c(F)cc(F)cc1F)c1cn2c(c(O)c1=O)C(=O)N1CCC=C(F)[C@H]2C1 (single isomer, unassigned) [Example 75-2]
HIV-1 (IIIB)
  EC50: 2.09 nM
[1]
  CC50 at 5 days: 26000 nM
pLai RLuc reporter virus; [2]
  EC50: 2.19 nM
pLai RLuc reporter virus; [3]
  EC50: 0.473 nM

## C[C@]12CC(F)CCN(C1)C(=O)c1c(O)c(=O)c(C(=O)NCc3c(F)cc(F)cc3F)cn12 (single isomer, unassigned) [Example 112]
HIV-1 (IIIB)
  EC50: 0.712 nM
[1]
  CC50 at 5 days: 8030 nM
pLai RLuc reporter virus; [2]
  EC50: 27.8 nM
pLai RLuc reporter virus; [3]
  EC50: 0.182 nM

## O=C(NCc1ccc(F)cc1F)c1cn2c(c(O)c1=O)C(=O)N1CC[C@@H](F)C[C@H]2C1 [Example 56-2, (5R,7S)—N-(2,4-difluorobenzyl)-5-fluoro-12-hydroxy-1,11-dioxo-1,4,5,6,7,11-hexahydro-3H-2,7-methanopyrido[1,2-a][1,4]diazonine-10-carboxamide]
HIV-1 (IIIB)
  EC50: 1.86 nM
[1]
  CC50 at 5 days: 17800 nM
pLai RLuc reporter virus; [2]
  EC50: 1.08 nM
pLai RLuc reporter virus; [3]
  EC50: 0.401 nM
